Structures are written as SMILES. Some results are limits rather than exact numbers.

The subject of one assay is IFNγ-induced STAT1 phosphorylation (pSTAT1) in B16F10 cells. Description: B16F10 Phospho-STAT1 HTRF proximal pharmacodynamic (PD) assay. Type of assay: cell-based, murine. Conditions: Mus musculus, B16-F10; Table 3; B16F10 cells, IFNγ-induced; thiochromanes (X = S) and chromane comparators (X = O); read-out: pSTAT1 EC50. The method, then:
Example 45: B16F10 (Murine Melanoma Cells) Phospho-STAT1 HTRF Proximal Pharmacodynamic (PD) Assay
B16F10 cells were grown and maintained in high glucose DMEM (Gibco, Catalog #11965-092, Dun Laoghaire Co Dublin) supplemented with 10% fetal bovine serum (Gibco, Catalog #10082-139, Dun Laoghaire Co Dublin). The cells were pelleted and resuspended in high glucose DMEM without phenol red (Gibco, Catalog #11054-020, Dun Laoghaire Co Dublin), supplemented with 10% fetal bovine serum and plated in a 384 well Corning plate (product #3765, Corning, NY) at 11,000 cells per well in a volume of 20 μL. The cells were dosed with the compounds of interest using an Echo Liquid Handler (Beckman Coulter, Brea, CA) at 50 μM top dose with 3-fold dilutions down to 0.002679 μM for a 10-point dose response. The plate was incubated for 3 hours at 37° C. and subsequently treated with recombinant mouse IFNγ (R&D Systems, Catalog #485-MI, Minneapolis, MN; 100 nM final concentration) for 10 minutes at 37° C. to induce STAT1 phosphorylation followed by 3.3 μM staurosporine treatment for 1 hour at 37° C. to terminate phosphorylation. Media was then aspirated and 20 μL of 1× lysis buffer/blocking reagent (Cisbio Phospho-STAT1 kit, part #63ADK026PEH, Bedford, MA) was added. The plate was placed on a plate shaker for 30 minutes at room temperature, sealed, and stored at −80° C. until needed. To thaw, the plate was placed on shaker at room temperature until completely thawed while the antibody master mix was made (1:40 Phospho-STAT1 Eu Cryptate antibody, 1:40 Phospho-STAT1 d2 antibody, with the detection buffer; Cisbio Phospho-STAT1 kit, part #63ADK026PEH, Bedford, MA). The antibody master mix was then dispensed at 4 μL per well into a 384 ProxiPlate Plus (PerkinElmer, part #6008289, Waltham, MA) and 16 μL of lysate was added from the Corning plate to the Proxiplate using a VIAFLO 384 (INTEGRA). The plate was incubated for 3 hours at room temperature and read on an EnVision® (Perkin Elmer) plate reader with laser excitation at 335 nm and emission at 665 nm. Dotmatics Studies (Bishop's Stortford, UK) was utilized to generate all dose-response curves and calculate EC50s and are shown in Table 2.
Consider `CC(C)CCN[C@@H]1COc2cc(O)c(N3CC(=O)NS3(=O)=O)c(F)c2C1` [Compound C-3, reference compound], for which the concentration giving a half-maximal response (EC50) was 6.96 µM. `CC(C)(C)OC(=O)N1CCC(CNC2COc3cc(O)c(N4CC(=O)NS4(=O)=O)c(F)c3C2)CC1` (stereo not shown) [Compound C-13, reference compound]: the EC50 was over 50 µM. For the molecule `O=C1CN(c2c(O)cc3c(c2F)CC(NCCC2CCOCC2)CO3)S(=O)(=O)N1` (stereo not shown) [Compound C-4, reference compound], the EC50 amounted to 32.2 µM. Turning to `O=C1CN(c2c(O)cc3c(c2F)CC(NCC2CCC(C(F)(F)F)CC2)CO3)S(=O)(=O)N1` (stereo not shown) [Compound C-11, reference compound], the EC50 is over 50 µM. Consider `O=C1CN(c2c(O)cc3c(c2F)CC(NCCCc2ccccc2)CO3)S(=O)(=O)N1` (stereo not shown) [Compound C-8, reference compound], for which the 50% effective concentration (EC50) is over 50 µM. As for `O=C1CN(c2c(O)cc3c(c2F)CC(NCC2C4CCCC42)CO3)S(=O)(=O)N1` (stereo not shown) [Compound C-10, reference compound], the concentration giving a half-maximal response (EC50) is over 50 µM. Turning to `O=C1CN(c2c(O)cc3c(c2F)CC(NCC2CC(c4ccccc4)C2)CO3)S(=O)(=O)N1` (stereo not shown) [Compound C-7, reference compound], the EC50 is over 50 µM.

Regarding `CC1=C(CCNC2COc3cc(O)c(N4CC(=O)NS4(=O)=O)c(F)c3C2)C(C)(C)CCC1` (stereo not shown) [Compound C-12, reference compound], the concentration for a half-maximal effect (EC50) is over 50 µM. On to `O=C1CN(c2c(O)cc3c(c2F)CC(NCC2(CF)CC2)CO3)S(=O)(=O)N1` (stereo not shown) [Compound C-6, reference compound], for which the EC50 is over 50 µM. For the molecule `N[C@@H]1COc2cc(O)c(N3CC(=O)NS3(=O)=O)c(F)c2C1` [Compound C-2, reference compound], the EC50 was found to be 5.75 µM.

As for `O=C1CN(c2c(O)cc3c(c2F)CC(NCCC2CCOC2)CO3)S(=O)(=O)N1` (stereo not shown) [Compound C-5, reference compound], the half-maximal effective concentration (EC50) came out at 22.6 µM.

A further assay addresses T1, His tagged PTPN2 (TC45) protein (Homo sapiens, UniProt P17706).
T1 construct: His; made in house
T1 sequence (P17706 1-387 isoform P17706-2): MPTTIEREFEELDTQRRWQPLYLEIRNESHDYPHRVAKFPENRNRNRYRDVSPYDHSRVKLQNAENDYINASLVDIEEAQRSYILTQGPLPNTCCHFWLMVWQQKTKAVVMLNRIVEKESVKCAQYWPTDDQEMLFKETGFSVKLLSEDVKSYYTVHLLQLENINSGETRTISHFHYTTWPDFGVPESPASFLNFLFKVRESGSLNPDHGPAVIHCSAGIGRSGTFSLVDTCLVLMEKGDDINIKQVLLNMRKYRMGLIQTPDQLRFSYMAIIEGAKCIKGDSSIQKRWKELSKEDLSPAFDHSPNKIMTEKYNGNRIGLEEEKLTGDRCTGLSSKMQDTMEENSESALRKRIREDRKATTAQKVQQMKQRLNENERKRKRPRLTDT
Description: Mobility Shift Assay (MSA) for PTPN2 inhibitors. The format is biochemical. Conditions: Table 3; thiochromanes (X = S) and chromane comparators (X = O). The method, then: Example 43: Mobility Shift Assay (MSA) Used to Determine Potency of PTPN2 Inhibitors
Compound activity was determined using in house His tagged PTPN2 (TC45) protein (SEQ ID NO: 1) in an in vitro enzymatic reaction. The enzymatic assay used to determine activity was a mobility shift assay using a LabChip EZ Reader by Caliper Life Sciences. The enzymatic reaction was carried out in assay buffer (50 mM HEPES pH 7.5, 1 mM EGTA, 10 mM EDTA, 0.01% Tween® 20, and 2 mM DTT). The compounds were dispensed on a white 384 well ProxiPlate™ (PerkinElmer Catalog #6008289) plate using the Labcyte Echo at varying concentrations (12 point, 1:3 dilution). The enzyme (at 0.5 nM) was incubated with compound for 10 minutes at room temperature. Thereafter, the substrate (phosphorylated insulin receptor probe sequence: ((OG488)-(NH—CH2—CH2—O—CH2—CH2—O—CH2—CO)-T-R-D-I—(PY)-E-T-D-Y—Y—R—K—K—NH2) (SEQ ID NO: 2) was added at 2 μM to the plates and incubated for another 10 minutes at room temperature. Finally, a quench solution (water and 4-bromo-3-(2-oxo-2-propoxyethoxy)-5-(3-{[1-(phenylmethanesulfonyl)piperidin-4-yl]amino}phenyl)thiophene-2-carboxylic acid) was added to the plates, which were then run on the EZ Reader (excitation 488 nm, emission 530 nm) to measure % conversion (the amount of phosphorylated substrate which was de-phosphorylated by PTPN2). […] The % inhibition was then used to calculate the IC50 values.
Turning to `CC(C)CCN[C@@H]1COc2cc(O)c(N3CC(=O)NS3(=O)=O)c(F)c2C1` [Compound C-3, reference compound], the IC50 was 0.015 µM.

With `N[C@@H]1COc2cc(O)c(N3CC(=O)NS3(=O)=O)c(F)c2C1` [Compound C-2, reference compound], the IC50 came to 0.052 µM.

These data come from patent US20250042894A1, “PROTEIN TYROSINE PHOSPHATASE INHIBITORS AND METHODS OF USE THEREOF” (Calico Life Sciences LLC, priority 2021, published 2025).
